Tests used:
JNK = JNK inhibition; assay type: biochemical
[1] = system: injured cartilage explants, PGE2 synthesis; assay: drop tower design model: PGE2 synthesis; assay type: cell-based, bovine; settings: cocktail of cytokines
Description: The device comprises a vertical rail that guides a sliding weight from 0.1 kg to 3 kg directly onto a force transducer which is situated at the bottom of the device. A sphere-shaped 2 mm indenter resting on a specimen is located at the bottom of the vertical rail. The indenter is held by a stop screw. The specimen is rigidly attached to a tissue holder underneath the indenter, to avoid side movements, the specimen is rigidly attached to the tissue holder. In this manner, the force transducer transduces a force indirectly onto the specimen. Adjusting the weight of a mass and height from which the mass drops varies the magnitude of the intended impact. For example, a weight mass (e.g., […]) held by a weight holder can be released from a height of e.g., 36 cm and dropped onto the force transducer. […]
In the first method, bovine or human PBMCs were freshly prepared using Ficoll gradient by Lampire Biological Laboratories, Inc. PBMCs in RPMI w/10% FCS at delivery were spun down at 1500 rpm for twenty minutes and the cell pellet was washed twice with 1×PBS to wash off the residual Ficoll. […] Each conditioned medium was assessed for levels of pro-inflammatory cytokines to ensure their secretion from PBMC. […]
PGE2 was measured with STAT-Prostaglandin E2 EIA ELISA kit (Cayman Biochemicals), as described in Example III above. […]

[2] = biological target: inactivated p38 MAP kinase (Homo sapiens, UniProt Q16539); assay: binding to inactivated p38 MAP kinase; settings: read-out: binds to inactivated p38 MAP kinase, Kd
inactivated p38 MAP kinase, sequence (Q16539 whole entry): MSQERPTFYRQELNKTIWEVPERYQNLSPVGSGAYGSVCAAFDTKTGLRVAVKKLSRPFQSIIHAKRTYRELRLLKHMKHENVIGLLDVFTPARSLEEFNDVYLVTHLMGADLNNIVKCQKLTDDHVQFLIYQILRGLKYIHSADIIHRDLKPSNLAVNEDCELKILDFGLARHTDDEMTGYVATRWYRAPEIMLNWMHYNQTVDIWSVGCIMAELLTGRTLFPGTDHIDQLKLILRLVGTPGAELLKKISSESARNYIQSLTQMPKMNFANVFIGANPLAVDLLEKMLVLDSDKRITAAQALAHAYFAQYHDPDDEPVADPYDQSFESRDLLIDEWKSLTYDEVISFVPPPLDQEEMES

[3] = system: LPS-induced TNF human peripheral blood mononuclear cells (hPBMC); assay: LPS-induced TNF in hPBMC; assay type: cell-based
[4] = system: LPS-induced IL-1 in hPBMC; assay: LPS-induced IL-1 in hPBMC; assay type: cell-based, human

`C[C@H](Nc1nccc(-c2c(-c3ccc(F)cc3)nc3nc(N)ccn23)n1)c1ccccc1` [JNJ 7583979 (RWJ 351958)] was tested. Which IC50 (JNK) did it give?
The IC50 was 12 nM.

With `OCCC#Cc1nc(-c2ccc(F)cc2)c(-c2ccncc2)n1CCCc1ccccc1` [JNJ 3026582 (RWJ 67657), 4-[4-(4-fluorophenyl)-1-(3-phenylpropyl)-5-(4-pyridinyl)-1H-imidazol-2-yl]-3-butyn-1-ol] as the molecule, how does the “PGE2 synthesis, inhibition” value [1] read?
The value was “dose-dependently inhibited”.

Which results are given for `CC(=O)N1CCN(c2c(-c3ccncc3)c(-c3ccc(F)cc3)c(C#N)n2C)CC1` [JNJ 17089540 (RWJ 669307)]?
Kd [2]: 100 nM; IC50 [3]: 220 nM; IC50 [4]: 250 nM

Reference: US8986696B2, “Trans-capsular administration of p38 map kinase inhibitors into orthopedic joints” (DePuy Mitek, Inc., priority 2007, dated 2015)
